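A five-concentration, 48-hour dose response in 96-well plates underlies each endpoint, interpolated linearly between surrounding concentrations. TGI: concentration producing complete growth inhibition.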
How the values were obtained:
Experiment in all cases: NCI tumour cell line growth inhibition, 48 h
HCT-116 colon = system: HCT-116 colon
ACHN renal = system: ACHN renal
CCRF-CEM leukemia = system: CCRF-CEM leukemia
NCI/ADR-RES ovarian = system: NCI/ADR-RES ovarian
KM20L2 colon = system: KM20L2 colon
MOLT-4 leukemia = system: MOLT-4 leukemia
HOP-92 NSCLC = system: HOP-92 NSCLC
SK-MEL-5 melanoma = system: SK-MEL-5 melanoma
BT-549 breast = system: BT-549 breast
HL-60(TB) leukemia = system: HL-60(TB) leukemia
HT29 colon = system: HT29 colon
MCF7 breast = system: MCF7 breast
K-562 leukemia = system: K-562 leukemia
EKVX NSCLC = system: EKVX NSCLC
KM12 colon = system: KM12 colon
A498 renal = system: A498 renal
RXF 393 renal = system: RXF 393 renal
NCI-H460 lung = system: NCI-H460 lung
OVCAR-8 ovarian = system: OVCAR-8 ovarian
SW-620 colon = system: SW-620 colon

| Compound | TGI (HCT-116 colon) [µM] | TGI (ACHN renal) [µM] | TGI (CCRF-CEM leukemia) [µM] | TGI (NCI/ADR-RES ovarian) [µM] | TGI (KM20L2 colon) [µM] | TGI (MOLT-4 leukemia) [µM] | TGI (HOP-92 NSCLC) [µM] | TGI (SK-MEL-5 melanoma) [µM] | TGI (BT-549 breast) [µM] | TGI (HL-60(TB) leukemia) [µM] | TGI (HT29 colon) [µM] | TGI (MCF7 breast) [µM] | TGI (K-562 leukemia) [µM] | TGI (EKVX NSCLC) [µM] | TGI (KM12 colon) [µM] | TGI (A498 renal) [µM] | TGI (RXF 393 renal) [µM] | TGI (NCI-H460 lung) [µM] | TGI (OVCAR-8 ovarian) [µM] | TGI (SW-620 colon) [µM] |
| --- | --- | --- | --- | --- | --- | --- | --- | --- | --- | --- | --- | --- | --- | --- | --- | --- | --- | --- | --- | --- |
| N=c1nc2n(cc1F)[C@@H]1O[C@H](CO)[C@@H](O)[C@@H]1O2 | > 100 | > 34.4 | > 12.3 | > 100 | > 100 | 18.9 | > 65.1 | > 74.7 | > 100 | > 40.9 | > 100 | > 100 | > 100 | > 100 | > 100 | > 100 | > 56.2 | > 36 | > 100 | > 100 |
| O=C(O)Cc1cccc2c1Oc1ccccc1S2 | > 100 | > 100 | > 100 |  | > 100 | > 100 | > 100 | > 100 |  | > 100 | > 100 |  | > 100 | > 100 | > 100 | > 100 | > 100 | > 100 | > 100 | > 100 |
| N#C/C(=C\c1ccc(O)c(O)c1)C(=O)NC1CCC(CC2CCC(NC(=O)/C(C#N)=C/c3ccc(O)c(O)c3)CC2)CC1 (stereo not drawn) | 0.642 | 4.24 | 4.36 |  | 3.81 | > 57.5 | 6.31 | 12.8 |  | 6.09 | 3 |  | 4.93 | 45.1 | 2.92 | > 100 | 12.8 | 1.13 | 10.4 | 25.7 |
| COc1ccc2c3c(n(Cc4ccccc4)c(=O)c2c1)-c1cc(OC)c(OC)cc1C3C (stereo not drawn) | > 100 | 43.9 | > 100 |  | > 100 | > 100 | 42.6 | 51.5 |  | > 100 | > 84.8 |  | > 100 | 52.8 | > 100 | 97.8 | 48.8 | 21.7 | > 100 | > 100 |
| CCSC1(SCC)CC(Cc2ccc(OC)cc2)N(C=NC(C)(C)C)C1 (stereo not drawn) | 92.8 | > 100 | 52.4 |  | 56.9 | 40.9 | 25 | 31.3 |  | 26.6 | 51.5 |  | 53.8 | > 100 | 64.8 | > 100 | 40.9 | > 100 | > 100 | 43.1 |
